From US12594255B2, “Lipids with odd number of carbon atoms and their use as pharmaceutical composition or nutritional supplement” (SunRegen Healthcare AG, priority 2016, dated 2026)
Several values for one entry are separate records, joined by “and”; a condition that tells them apart may be missing. Equal values may be shown once.

How the values were obtained:
Assay type in all cases: cell-based
[1] = test system: mouse primary cortical neurons challenged with Aβ1-42 oligomers (AβO); assay: AβO-induced neurotoxicity, 48-h pre-incubation with test item, MTT assay; details: for Neuroprotection (0.01 μM) / Neuroprotection (0.1 μM): added 48 hours before 1 μM AβO; for neuroprotective effect: 1 μM, 48-h preincubation before 1 μM AβO
Protocol: Mouse primary cortical neurons were pre-incubated for 48 h with vehicle, 0.05 μM DHA (used as positive control) or different concentrations of Compound C. Then, cortical neurons were treated for 24 h with vehicle (FIG. 1 left) or 1 μM AβO ([…]) and cell viability was determined using the MTT assay (n=3 determinations per condition, 1 independent experiment), Data are represented as % of vehicle control (Mean*SD). […]
(§1) Cortical neurons from embryonic day 16-17 are prepared from C57BL6/J mouse fetuses. In brief, dissociated cortical cells were plated (50.000 cells/well) in 48-well plates pre-coated with 1.5 μg/mL polyornithine (Sigma). Cells were cultured in a chemically defined Dulbecco's modified eagle's/F12 medium free of serum and supplemented with hormones, proteins and salts. Cultures were kept at 35° C. in a humidified 6% CO2 atmosphere. Mouse cortical neurons were exposed for 24 h to 1.0 μM AβO after a 48-h pre-incubation with vehicle or different concentrations of Compound C. The AβO-induced neurotoxicity was evaluated using the MTT assay.
All treatments were done in triplicates in 48-well plates. Cells were incubated with vehicle or 1 μM AβO in the absence or presence of different lipids at the indicated final concentrations) added at 48 hours before ADO. Cells were incubated with AβO for 24 h in a final volume of 140 μL per well.
For positive controls, cells are treated similarly (48 hours before AβO) in the presence of 0.05 μM DHA.
Following AβO-treatment, cell viability was measured using the MTT assay. Briefly, cells were incubated at 35° C. for 1 h with MTT (Sigma, Cat #M2128-10G. Lot #MKBH7489V). For that purpose, 14 μL of 5 mg/mL MITT (solubilized in PBS) were added in each well. After incubation, medium was removed and cells were lyzed with 150 μL DMSO for 10 minutes and protected from light. After complete solubilization of formazan, absorbance at 570 nm was recorded.
as §1, with “cells are” for “cells were”, “Cells are” for “Cells were”, “Cultures are” for “Cultures were”, “of herb B extracts.” for “of Compound C.”, “assay. […]” for “assay.”

[2] = test system: mouse primary cortical neurons treated with 0.25 mM H2O2; assay: H2O2-induced neurotoxicity, test item added 48 hours before or 3 hours after H2O2, MTT assay
[3] = test system: mouse primary cortical neurons challenged with Aβ1-42 oligomers (AβO); assay: AβO-induced neurotoxicity, test item added concomitantly (T0) or 3 h (T3) or 6 h (T6) after AβO, MTT assay; details: 0.1 μM HNG added 3 or 6 h after AβO
Protocol: Mouse primary cortical neurons were treated at 0 h (T0) with vehicle or 1 μM AβO, Different concentrations of Compound C or HNG (0.1 μM, used as positive control) were added concomitantly to AβO at 0 h (T0)), 3 h (T3) or 6 h (T6) after AβO. Then, cortical neurons were incubated for 24 h and cell viability was determined using the MTT assay (n=3 determinations per condition, 1 independent experiment). Data are represented as % of vehicle control (Mean±SD). […]
The aim of this study is to determine whether Compound C might present neuroprotective, anti-apoptotic and neuro-rescuing effects in in vitro AβO induced neuron death models. For that purpose, the neuro-protective effects of compound C at six concentrations were investigated using mouse primary cortical neurons challenged with Aβ1-42 oligomers (AβO) Compounds were added at different time points (concomitantly T0 with AβO and T3, or T6 after AβO) with the aim to identify rescuing effects or anti-apoptotic effects.
Cortical neurons from embryonic day 16-17 are prepared from C57Bl6/J mouse fetuses, as described in Example I-1.
Mouse cortical neurons were exposed for 24 h to 1.0 μM AβO. The AβO-induced neurotoxicity was evaluated using the MTT assay. […] (FIG. 4)
The percentage of neuroprotection and anti-apoptosis effects was defined as; (neuron viability of compound C group−neuron viability of toxin treated group)/(100−neuron viability of toxin treated group)×100%. The % of neuroprotection and anti-apoptotic effects of compound C at 1000 nM is 88.7%, 52.0%, 22.3%, at T0, T3, or T6, respectively. (FIG. 4) […]

[4] = test system: human iPSC-derived neurons challenged with Aβ1-42 oligomers (AβO); assay: AβO-induced neuronal death in human iPSC-derived neurons, NSE ELISA assay
Protocol: iPSCs were treated at 0 h (T0) with vehicle or 1 μM AβO. Different concentrations of Compound C or 0.1 μM HNG (used as positive control) were added concomitantly to AβO at 0 h (T0), 3 h (T3) or 6 h (T6) after AβO. Then, were incubated for 24 h and cell viability was determined using the NSE ELISA assay (n=6 determinations per condition, 1 independent experiment), Data are represented as % of vehicle control (Mean±SD). […]
To determine whether compound C might rescue neuronal death in human iPSC-derived neurons challenged with Aβ1-42 oligomers (AβO). In this cellular model, AβO induce a dramatic neuronal death that could be monitored by the level of neuronal specific enolase (NSE) using a specific ELISA assay. Compound C will be added at different time points (concomitantly and after AMBO) with the aim to identify rescuing effects.
Cells (HIP-Neuronal progenitors, GlobalStem, Cat #GSC-4312, Lot #20010260) are plated in 96-well plates at a density of 60.000 cells per well and culture. Before experiments, cells are matured for five weeks and kept at 37° C. in a humidified 5% CO2 atmosphere.
Cells are incubated with vehicle or 1 μM AβO in the absence or presence of different concentrations (i.e. 10, 100, 1000 and 10000 nM) of Compound C added concomitantly to AβO (T0), 3 h after AβO (T3), or 6 h after AβO (T6). Cells are incubated for 24 h in a final volume of 100 μL per well. For positive control, cells are treated similarly in the presence of 0.1 μM HNG (i.e. S14G variant of humanin peptide). In addition, neuronal loss is monitored using the detection of neuronal specific enolase (NSE) by ELISA assay according to supplier's recommendations (CloneCloud, Cat #SEA537Hu). A total of three data points per experimental condition will be generated here. […]

[5] = test system: mouse primary cortical neurons; assay: Axonal growth (MAP2 immunolabelling, axonal length); details: 60 nM sAPPα; vehicle control 165.96±90.18 μm
Protocol: Mouse primary cortical neurons were pre-incubated for 48 h with vehicle, 60 nM sAPPα (used as positive control) or different concentrations of Compound C. Then, cortical neurons were treated for 24 h with vehicle. Data are represented as % of vehicle control (Mean±SD).
Cortical neurons from embryonic day 16-17 are prepared from C57Bl6/J mouse fetuses, as described in Example I-1. After 96-h incubation, axonal length is recorded. Briefly, cells were washed with ice-cold PBS and fixed with cold methanol. Following fixation, cells are immunolabelled using a specific antibody detecting total MAP2 protein. Antibodies to MAP2 are excellent markers on neuronal cells, their axons and neuronal dendrites. For quantification of axonal length, six independent images of labelled cells are captured using an inverted microscope. Pictures of cells are analyzed using Neuron-J software and axonal length is recorded manually. A minimum of 100 independent neurons are treated. The data are expressed as mean axonal length (expressed in μm) (Mean±SD). Statistical differences between vehicle-treated cells and cells treated with compounds are determined using a t-test.

Compound | Neuroprotection (0.01 μM) [1] [%] | Neuroprotection (0.1 μM) [1] [%] | neuroprotective effect [1] | also measured
CC/C=C\C/C=C\C/C=C\C/C=C\C/C=C\C/C=C\CCC(=O)O [DHA, Docosahexaenoic acid, reference compound] |  |  |  | remaining cell viability ([1]; 0.05 μM DHA, 48 h pre-incubation, then 1 μM AβO 24 h): 82.0±2.6 % of control and 90.9±3.1 % of control
CCCCCCCCCCCCCCC(=O)O [GG05, Pentadecanoic acid] | 21.9 | 14.0 | lost neuroprotective effect | 
CCCCCCCCCCCCCCCCC(=O)O [GG07, Heptadecanoic acid] | 27.4 | 21.4 | lost neuroprotective effect | 
CCCCCCCCCCCCCCCCCCC(=O)O [GG09, Nonadecanoic acid] | 31.2 | 25.9 | lost neuroprotective effect | 
Cc1c(C)c2c(c(C)c1O)CCC(C)(C(=O)O)O2 (stereo not shown) [Trolox] |  |  |  | inhibition of H2O2-induced cell death ([2]; 1 mM Trolox added 48 h before 0.25 mM H2O2): partially inhibited cell death induced by H2O2; inhibition of H2O2-induced cell death ([2]; 1 mM Trolox added at T3 after 0.25 mM H2O2): partially inhibited cell death induced by H2O2
HNG: S14G variant of humanin peptide, positive control, well-known antiapoptotic peptide (MAPRGFSCLLLLTGEIDLPVKRRA; UniProt Q8IVG9 1-24, looked up, variant S14G) [reference compound] |  |  |  | prevention of AβO-induced cell death [3]: did not prevent cell death; prevention of AβO-induced cell death ([4]; 0.1 μM HNG added 3 or 6 h after AβO): did not prevent cell death; neuron viability ([4]; 0.1 μM HNG added at T0 with 1 μM AβO, 24 h): 85.3±15.6 % of control and 85.3±5.6 % of control
sAPPα: Secreted amyloid precursor protein-α, positive control [reference compound] |  |  |  | neuronal axon outgrowth (mean axonal length) [5]: 264.63±157.51 μm
